Legend:
barnyardgrass (Ec) [1] = assay: Test Example 1: herbicidal effects by paddy field soil treatment; type: in vivo; details: 100 g of the active ingredient per 10 ares, 21st day after the application, index 0-5 of Table 47;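 further: grade of growth control; 5 = at least 90%; 4 = 70 to 90%; 3 = 50 to 70%; 2 = 30 to 50%; 1 = 10 to 30%; 0 = under 10%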
Outline: (§1)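 Flooded paddy-soil pots (3 cm water) sown after puddling/leveling; treatment 100 g a.i./10 ares; greenhouse culture; herbicidal effect rated visually on a scoring scale at 21 d post-application.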

bulrush (Sc) = assay: as above; type: in vivo; details: 100 g of the active ingredient per 10 ares, 21st day after the application, index 0-5 of Table 47;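 further: grade of growth control; 5 = at least 90%; 4 = 70 to 90%; 3 = 50 to 70%; 2 = 30 to 50%; 1 = 10 to 30%; 0 = under 10%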
Outline: as §1

monochoria (Mo) = assay: as above; type: in vivo; details: 100 g of the active ingredient per 10 ares, 21st day after the application, index 0-5 of Table 47;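 further: grade of growth control; 5 = at least 90%; 4 = 70 to 90%; 3 = 50 to 70%; 2 = 30 to 50%; 1 = 10 to 30%; 0 = under 10%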
Outline: as §1

Digitaria ciliaris (Di) = assay: Test Example 2: herbicidal effects by upland field soil treatment; type: in vivo; details: 100 g of the active ingredient per 10 ares, evaluated on the 21st day after application;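 further: grade of growth control; 5 = at least 90%; 4 = 70 to 90%; 3 = 50 to 70%; 2 = 30 to 50%; 1 = 10 to 30%; 0 = under 10%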
Source text: (§2) (Test on Herbicidal Effects by Upland Field Soil Treatment)

barnyardgrass (Ec) [2] = assay: as above; type: in vivo; details: 100 g of the active ingredient per 10 ares, evaluated on the 21st day after application
Source text: as §2

[3] = system: common lambsquarters (Ch); assay: as above; type: in vivo; details: 100 g of the active ingredient per 10 ares, evaluated on the 21st day after application
Source text: as §2

pale smartweed (Po) [4] = assay: as above; type: in vivo; details: 100 g of the active ingredient per 10 ares, evaluated on the 21st day after application
Source text: as §2

rice flatsedge (Ci) [5] = assay: as above; type: in vivo; details: 100 g of the active ingredient per 10 ares, evaluated on the 21st day after application
Source text: as §2

slender amaranth (Am) [6] = assay: as above; type: in vivo; details: 100 g of the active ingredient per 10 ares, evaluated on the 21st day after application
Source text: as §2

Diaitaria ciliaris (Di) = assay: Test Example 3: herbicidal effects by upland field foliage treatment; type: in vivo; parameters: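 grade of growth control; 5 = at least 90%; 4 = 70 to 90%; 3 = 50 to 70%; 2 = 30 to 50%; 1 = 10 to 30%; 0 = under 10%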; details: 100 g active ingredient per 10 ares, evaluated 14th day after treatment
Outline: (§3)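 Pot culture: sand, 120 cm^2 surface; seeds sown, soil-covered, greenhouse 2 weeks. Foliage treatment applied at that stage. Herbicidal effect rated by standard scale, day 14 post-treatment.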

barnyardgrass (Ec) [7] = assay: as above; type: in vivo; parameters: scale not given here; details: 100 g active ingredient per 10 ares, evaluated 14th day after treatment
Outline: as §3

[8] = system: common lambsquarters (Ch); assay: as above; type: in vivo; parameters: scale not given here; details: 100 g active ingredient per 10 ares, evaluated 14th day after treatment
Outline: as §3

pale smartweed (Po) [9] = assay: as above; type: in vivo; parameters: scale not given here; details: 100 g active ingredient per 10 ares, evaluated 14th day after treatment
Outline: as §3

rice flatsedge (Ci) [10] = assay: as above; type: in vivo; parameters: scale not given here; details: 100 g active ingredient per 10 ares, evaluated 14th day after treatment
Outline: as §3

slender amaranth (Am) [11] = assay: as above; type: in vivo; parameters: scale not given here; details: 100 g active ingredient per 10 ares, evaluated 14th day after treatment
Outline: as §3

wheat (Tr) = assay: Test Example 9: crop plant selectivity by upland field foliage treatment (wheat), phytotoxicity; details: dose 1.6 g ai/10a, 14th day after treatment
Outline: (§4)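 Sand-filled pot, wheat + weeds co-sown; greenhouse 2 wk, then foliage treatment; greenhouse culture continued; visual scoring of weed control and crop injury at 14 d post-treatment per grading scale.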

China jute (Ab) [12] = assay: Test Example 9: crop plant selectivity by upland field foliage treatment (wheat), herbicidal effects; type: in vivo; parameters: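 grade of growth control; 5 = at least 90%; 4 = 70 to 90%; 3 = 50 to 70%; 2 = 30 to 50%; 1 = 10 to 30%; 0 = under 10%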; details: dose 1.6 g ai/10a, 14th day after treatment
Outline: as §4

[13] = system: common lambsquarters (Ch); assay: as above; type: in vivo; parameters: scale not given here; details: dose 1.6 g ai/10a, 14th day after treatment
Outline: as §4

pale smartweed (Po) [14] = assay: as above; type: in vivo; parameters: scale not given here; details: dose 1.6 g ai/10a, 14th day after treatment
Outline: as §4

slender amaranth (Am) [15] = assay: as above; type: in vivo; parameters: scale not given here; details: dose 1.6 g ai/10a, 14th day after treatment
Outline: as §4

soybean (Gl) = assay: Test Example 10: crop plant selectivity by upland field foliage treatment (soybean), phytotoxicity; details: dose 1.6 g ai/10a, 14th day after treatment
Experimental: (§5) (Test on Crop Plant Selectivity by Upland Field Foliage Treatment)
(§6) In a plastic pot (surface area: 600 cm^2) filled with sand, soybean (Gl), pale smartweed (Po), slender amaranth (Am), common lambsquarters (Ch) and China jute (Ab) were sown and cultured in a green house for 2 weeks. […] The plants were then cultured in a green house, and the evaluation of the herbicidal effects and phytotoxicity was conducted on the 14th day after the treatment in accordance with the standards as identified in Table 47.

China jute (Ab) [16] = assay: Test Example 10: crop plant selectivity by upland field foliage treatment (soybean), herbicidal effects; type: in vivo; details: dose 1.6 g ai/10a, 14th day after treatment
Experimental: as §5, §6

[17] = system: common lambsquarters (Ch); assay: as above; type: in vivo; details: dose 1.6 g ai/10a, 14th day after treatment
Experimental: as §5, §6

pale smartweed (Po) [18] = assay: as above; type: in vivo; details: dose 1.6 g ai/10a, 14th day after treatment
Experimental: as §5, §6

slender amaranth (Am) [19] = assay: as above; type: in vivo; details: dose 1.6 g ai/10a, 14th day after treatment
Experimental: as §5, §6

corn (Ze) = assay: Test Example 11: crop plant selectivity by upland field foliage treatment (corn), phytotoxicity; details: upland field foliage treatment, dose 1.6 g ai/10a, 14th day after treatment
Outline: (§7)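 Corn and the weed species were sown together in sand-filled pots and grown in a greenhouse for 2 weeks before foliar treatment. Herbicidal effect was scored on day 14 after treatment against a graded standard scale, with corn phytotoxicity scored alongside.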

China jute (Ab) [20] = assay: Test Example 11: crop plant selectivity by upland field foliage treatment (corn), herbicidal effects; type: in vivo; parameters: scale not given here; details: upland field foliage treatment (corn test), dose 1.6 g ai/10a, 14th day after treatment
Outline: as §7

[21] = system: common lambsquarters (Ch); assay: as above; type: in vivo; parameters: scale not given here; details: upland field foliage treatment (corn test), dose 1.6 g ai/10a, 14th day after treatment
Outline: as §7

pale smartweed (Po) [22] = assay: as above; type: in vivo; parameters: scale not given here; details: upland field foliage treatment (corn test), dose 1.6 g ai/10a, 14th day after treatment
Outline: as §7

slender amaranth (Am) [23] = assay: as above; type: in vivo; parameters: scale not given here; details: upland field foliage treatment (corn test), dose 1.6 g ai/10a, 14th day after treatment
Outline: as §7

C#CCOCc1cc(-c2ccc(C(F)(F)F)n(C)c2=O)c(F)cc1Cl [Compound No. 1-199, 3-(4-chloro-2-fluoro-5-propargyloxymethylphenyl)-1-methyl-6-trifluoromethyl-2(1H)-pyridone]
Herbicidal effects Ec (barnyardgrass (Ec) [1]): 5
Herbicidal effects Sc (bulrush (Sc)): 5
Herbicidal effects Mo (monochoria (Mo)): 5
Herbicidal effects Di (Digitaria ciliaris (Di)): 5
Herbicidal effects Ec (barnyardgrass (Ec) [2]): 5
Herbicidal effects Ch [3]: 5
Herbicidal effects Po (pale smartweed (Po) [4]): 5
Herbicidal effects Ci (rice flatsedge (Ci) [5]): 5
Herbicidal effects Am (slender amaranth (Am) [6]): 5
Herbicidal effects Di (Diaitaria ciliaris (Di)): 5
Herbicidal effects Ec (barnyardgrass (Ec) [7]): 4
Herbicidal effects Ch [8]: 5
Herbicidal effects Po (pale smartweed (Po) [9]): 5
Herbicidal effects Ci (rice flatsedge (Ci) [10]): 5
Herbicidal effects Am (slender amaranth (Am) [11]): 5
Phytotoxicity Tr (wheat (Tr)): 2
Herbicidal effects Ab (China jute (Ab) [12]): 5
Herbicidal effects Ch [13]: 5
Herbicidal effects Po (pale smartweed (Po) [14]): 5
Herbicidal effects Am (slender amaranth (Am) [15]): 5
Phytotoxicity Gl (soybean (Gl)): 2
Herbicidal effects Ab (China jute (Ab) [16]): 5
Herbicidal effects Ch [17]: 5
Herbicidal effects Po (pale smartweed (Po) [18]): 5
Herbicidal effects Am (slender amaranth (Am) [19]): 5
Phytotoxicity Ze (corn (Ze)): 2
Herbicidal effects Ab (China jute (Ab) [20]): 5
Herbicidal effects Ch [21]: 5
Herbicidal effects Po (pale smartweed (Po) [22]): 5
Herbicidal effects Am (slender amaranth (Am) [23]): 5
melting point: 99 to 101 °C
